These are literature values, as cited in publication PMC3865603 (Cancer chemotherapy and pharmacology, 2011).

The structures appear in SMILES notation.

One data set concerns patients. Conditions: cited from earlier work.
Another data set deals with tubulin in PBMCs. The note with it: ixabepilone RP2D 40 mg/m^2, 1 h after infusion, n = 27; cited from earlier work.
The conditions of data set [1]: cited from earlier work.

As for `C/C(=C\c1csc(C)n1)[C@@H]1C[C@@H]2O[C@]2(C)CCC[C@H](C)[C@H](O)[C@@H](C)C(=O)C(C)(C)[C@@H](O)CC(=O)N1` [Ixabepilone, ixabepilone], the DLTs result in the data set on patients was “neutropenia, neuropathy, and abdominal pain/nausea”. Further, in the data set with tubulin in PBMCs, the “mean MBF” value is given as 63%.

Take `C/C1=C/C[C@@H](/C(C)=C/c2csc(C)n2)OC(=O)C[C@H](O)C(C)(C)C(=O)[C@H](C)[C@@H](O)[C@@H](C)CCC1` [KOS-862, Desoxyepothilone B]: in data set [1], the “in vivo activity relative to other epothilones” value was “greater activity compared with ixabepilone and patupilone”. The “neurotoxicity in phase II trials” value with patients is “significant neurotoxicity”.

Regarding `C/C(=C\c1csc(C)n1)[C@@H]1C[C@@H]2O[C@]2(C)CCC[C@H](C)[C@H](O)[C@@H](C)C(=O)C(C)(C)[C@@H](O)CC(=O)O1` [patupilone], the DLTs entry in the data set with patients was “diarrhea, peripheral neuropathy, and fatigue”.

Consider `C=CC[C@H]1C(=O)C(C)(C)[C@@H](O)CC(=O)O[C@H](c2ccc3sc(C)nc3c2)C[C@@H]2O[C@]2(C)CCC[C@H](C)[C@@H]1O` [sagopilone], for which the DLTs result with patients was “peripheral neuropathy, infection, hyponatremia, diarrhea, and central ataxia”.
